“Also recorded” adds a separate entry of the source.
What was measured:
AR [1] = conditions: read-out: IC50 range in ICCVAM meta-analysis; cited from earlier work
H295R cells = experiment: H295R cell-based steroidogenesis assay; parameters: species or system human; conditions: for effect on testosterone production in words: 10^−11 to 10^−5 M
AR [2] = conditions: cited from earlier work; for EC50: read-out: AR-EcoScreen assay EC50, ref Dennis et al. [18]
AR [3] = conditions: cited from earlier work
AR [4] = conditions: cited from earlier work; remark: listed apart in the source
AR [5] = conditions: cited from earlier work; remark: listed apart in the source
AR [6] = conditions: at high concentrations (10^−5 M); cited from earlier work
androgen receptor (AR) = target: T1, androgen receptor (AR) (Homo sapiens, UniProt P10275); type: cell-based
T1 sequence (P10275 1-920): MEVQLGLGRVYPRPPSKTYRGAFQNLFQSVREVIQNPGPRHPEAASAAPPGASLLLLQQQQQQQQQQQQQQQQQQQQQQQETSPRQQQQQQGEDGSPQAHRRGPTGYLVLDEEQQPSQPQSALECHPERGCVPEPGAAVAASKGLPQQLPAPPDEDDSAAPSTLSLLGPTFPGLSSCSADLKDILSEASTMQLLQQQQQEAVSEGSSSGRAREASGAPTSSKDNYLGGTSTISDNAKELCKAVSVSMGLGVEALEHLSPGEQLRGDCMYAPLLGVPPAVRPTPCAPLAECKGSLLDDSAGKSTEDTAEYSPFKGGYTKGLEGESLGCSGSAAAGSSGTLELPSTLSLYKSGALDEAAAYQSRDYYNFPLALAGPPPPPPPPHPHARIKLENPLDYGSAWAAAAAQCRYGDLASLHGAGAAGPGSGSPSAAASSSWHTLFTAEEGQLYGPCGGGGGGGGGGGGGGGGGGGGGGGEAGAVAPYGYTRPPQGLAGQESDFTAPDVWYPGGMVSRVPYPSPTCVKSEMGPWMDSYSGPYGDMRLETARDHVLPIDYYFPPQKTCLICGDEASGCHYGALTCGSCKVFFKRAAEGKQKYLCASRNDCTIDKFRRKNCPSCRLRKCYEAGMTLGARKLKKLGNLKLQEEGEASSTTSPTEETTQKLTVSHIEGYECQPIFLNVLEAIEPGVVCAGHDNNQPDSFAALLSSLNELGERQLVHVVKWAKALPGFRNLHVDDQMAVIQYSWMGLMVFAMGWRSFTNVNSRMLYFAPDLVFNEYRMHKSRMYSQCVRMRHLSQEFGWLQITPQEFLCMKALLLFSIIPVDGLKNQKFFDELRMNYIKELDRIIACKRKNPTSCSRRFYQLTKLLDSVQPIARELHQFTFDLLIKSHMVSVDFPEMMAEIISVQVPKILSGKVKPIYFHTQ

SMILES: CC(C)C(=O)Nc1ccc([N+](=O)[O-])c(C(F)(F)F)c1 [Flutamide]
- effect on testosterone production in words (H295R cells): did not induce autobioluminescence or change testosterone production
- effect on testosterone production in words (H295R cells; listed as flutamide): did not demonstrate a detectable change in testosterone production

SMILES: C[C@]12C[C@H](O)[C@H]3[C@@H](CCC4=CC(=O)CC[C@@]43C)[C@@H]1CC[C@@H]2C(=O)CO [Corticosterone]
- AR agonist classification in AR-EcoScreen assay (AR [2]): Positive AR transcriptional activity
- AR transcriptional activity in MDA-kb2 assay (AR [3]): Positive AR transcriptional activity
- AR agonistic effects in yeast-based reporter assays (AR [4]): failed to elicit positive AR agonistic effects

SMILES: C#C[C@]1(O)CC[C@H]2[C@@H]3CCc4cc(O)ccc4[C@H]3CC[C@@]21C [17α-Ethinylestradiol, 17α-Ethynylestradiol]
- AR antagonist classification in AR-EcoScreen assay (AR [5]): AR antagonist

SMILES: CC(C)(O)C(=O)Nc1ccc([N+](=O)[O-])c(C(F)(F)F)c1 [Hydroxyflutamide]
- effect on testosterone production in words (H295R cells): did not alter testosterone production
- effect on testosterone production in words (H295R cells; listed as hydroxyflutamide): did not change testosterone levels
- AR transcriptional activation activity (AR [6]): low AR transcriptional activation activity

SMILES: CC(=O)N1CCN(c2ccc(OCC3COC(Cn4ccnc4)(c4ccc(Cl)cc4Cl)O3)cc2)CC1 (stereo not drawn) [Ketoconazole]
- AR agonist classification in AR-EcoScreen assay (AR [2]): negative AR agonist
- AR agonism response in yeast assays (AR [4]): positive AR agonism response

SMILES: C[C@]12C=CC3=C4CCC(=O)C=C4CC[C@H]3[C@@H]1CC[C@@H]2O [17β-Trenbolone, 17ß-Trenbolone]
- AR agonist activity in words (androgen receptor (AR)): strongly induced autobioluminescence; also recorded: induced autobioluminescent signal exceeding the maximal response of 5α-dihydrotestosterone

SMILES: C#CC1(O)CC[C@H]2[C@@H]3CCC4=CC(=O)CC[C@@H]4[C@H]3CC[C@@]21CC (mixture of isomers) [Norgestrel, norgestrel]
- effect on testosterone production in words (H295R cells): increased testosterone production
- EC50 (H295R cells; Homo sapiens, NCI-H295R, read-out: H295R testosterone assay EC50): 730 nM

SMILES: C[C@]12CCC(=O)C[C@@H]1CC[C@@H]1[C@@H]2CC[C@]2(C)[C@@H](O)CC[C@@H]12 [5α-Dihydrotestosterone]
- EC50 (AR [2]): […]

SMILES: CC#C[C@]1(O)CC[C@H]2[C@@H]3CCC4=CC(=O)CCC4=C3[C@@H](c3ccc(N(C)C)cc3)C[C@@]21C [Mifepristone]
- EC50 (AR [2]): […]

From publication PMC8371548 (BioTechniques, 2021)
